The values that follow come from ChEMBL document CHEMBL1128178, “Kynurenic acid derivatives inhibit the binding of nerve growth factor (NGF) to the low-affinity p75 NGF receptor” (J Med Chem, 1995).

For orientation: IC50 means the concentration that inhibits the measured activity by half. Usually inhibition stands for the drop in the measured response relative to a control, in per cent. Low readings indicate a weak effect, high ones a strong effect.

In one assay the target is T1, Tumor necrosis factor receptor superfamily member 16 (Homo sapiens, UniProt P08138).
T1 sequence (P08138 whole entry): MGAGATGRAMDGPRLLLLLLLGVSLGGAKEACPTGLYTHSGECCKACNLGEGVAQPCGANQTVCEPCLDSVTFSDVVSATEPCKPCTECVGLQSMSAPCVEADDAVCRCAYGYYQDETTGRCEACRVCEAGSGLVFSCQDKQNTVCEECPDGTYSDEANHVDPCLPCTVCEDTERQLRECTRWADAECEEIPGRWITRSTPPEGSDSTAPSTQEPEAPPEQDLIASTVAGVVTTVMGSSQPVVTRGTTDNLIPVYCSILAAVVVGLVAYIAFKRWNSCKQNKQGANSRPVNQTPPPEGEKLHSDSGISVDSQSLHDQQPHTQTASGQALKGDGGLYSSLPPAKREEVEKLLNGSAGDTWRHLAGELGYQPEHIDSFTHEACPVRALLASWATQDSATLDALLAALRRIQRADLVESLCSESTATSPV
The experiment in a line: Inhibition of [125I]- NGF binding to extracellular domain of p75 receptor.
In turn, `COC(=O)c1c(C)sc2c(O)cc(C(=O)Nn3cnnn3)nc12` yielded an IC50 of 1.3 µM.

In turn, `Cn1c2ccc(NC(=O)c3ccccc3)cc2c(=O)n2nc(C(=O)O)cc12` registered a concentration for half-maximal inhibition (IC50) of 0.2 µM.

`COC(=O)c1c(C)sc2c(O)cc(C(=O)O)nc12` registered an IC50 of 2.3 µM.

`Nc1ccc2nc(C(=O)O)cc(O)c2c1` had an IC50 of 3.1 µM.

The next assay concerns the target T1, Tumor necrosis factor receptor superfamily member 16. Nature of the assay: Inhibition of [125I]- NGF binding to extracellular domain of p75 receptor; IA=Inactive.
For `O=C(O)c1ccc2c(O)cc(C(=O)O)nc2c1`, the 50% inhibitory concentration (IC50) entry is listed as “Not Active”.

For `NC(=O)c1ccc2nc(C(=O)O)cc(O)c2c1`, the IC50 result was “Not Active”.

Take `Cn1c(C(=O)O)cc(=O)c2cc(N)ccc21`: the IC50 entry was “Not Active”.

As for `O=C(O)c1cc(O)c2c(C(=O)O)cccc2n1`, the IC50 entry was “Not Active”.

Consider `Cc1ccc(C(=O)Nc2ccc3c(c2)c(=O)cc(C(=O)O)n3C)cc1`, for which the IC50 entry is “Not Active”.

For `O=C(O)c1cc(O)c2cc([N+](=O)[O-])ccc2n1`, the concentration for half-maximal inhibition (IC50) entry was “Not Active”.

Turning to `O=C(O)c1ccc2nc(C(=O)O)cc(O)c2c1`, the IC50 entry is reported as “Not Active”.

In the case of `Cc1ccc(C(=O)Nc2ccc3c(O)cc(C(=O)O)nc3c2)cc1`, the IC50 result is recorded as “Not Active”.

On to `O=C(O)c1cc(=O)c2ccccc2[nH]1` [TRANSTORINE], for which the half-maximal inhibitory concentration (IC50) entry is on record as “Not Active”.

`Cc1ccc(C(=O)Nc2ccc3nc(C(=O)O)cc(O)c3c2)cc1`: the IC50 entry was “Not Active”.

For `O=C(O)c1cc(O)c2c(Cl)cc(Cl)cc2n1`, the concentration for half-maximal inhibition (IC50) result was “Not Active”.

Another assay deals with T2, Tumor necrosis factor receptor superfamily member 16 (Homo sapiens) (UniProt P08138).
T2 sequence (whole entry): T1 sequence (P08138 whole entry)
The experiment in a line: Percent inhibition of [125I]- NGF binding to extracellular domain of p75 receptor at 10 uM.
Compound `Cc1ccc(C(=O)Nc2cccc3nc(C(=O)O)cc(O)c23)cc1` gave an inhibition of 38%.

`Nc1cccc2nc(C(=O)O)cc(O)c12` gave an inhibition of 50%.

Turning to `COc1cc(C(=O)O)nc2ccc(N)cc12`, the inhibition came to 28%.

For the compound `COc1cc(C(=O)O)nc2ccc(NC(=O)c3ccc(C)cc3)cc12`, the inhibition is 29%.

In turn, `Nc1ccc2c(O)cc(C(=O)O)nc2c1` yielded an inhibition of 37%.
